Reference: patent publication US8778951B2, “Heteroaryl compounds and their uses” (Novartis AG, priority 2009, dated 2014)

biological target: Cdk9/cyclinT1 (Homo sapiens (Human), UniProt P50750); test: Cdk9/CyclinT1 IMAP Protocol (fluorescence polarization kinase assay); type: biochemical; conditions: Table 2; generated using one of the two Cdk9/cyclinT1 assays (IMAP or Alpha Screen), not specified which; unit inferred
Method: Cdk9/CyclinT1 IMAP Protocol
The biological activity of the compounds of the invention can be determined using the assay described below.
Cdk9/cyclinT1 is purchased from Millipore, cat #14-685. The final total protein concentration in the assay 4 nM. […] The final concentration of peptide substrate is 100 nM. The ATP substrate (Adenosine-5′-triphosphate) is purchased from Roche Diagnostics, cat#1140965. The final concentration of ATP substrate is 6 uM. IMAP (Immobilized Metal Assay for Phosphochemicals) Progressive Binding reagent is purchased from Molecular Devices, cat#R8139. Fluorescence polarization (FP) is used for detection. The 5TAMRA-cdk7tide peptide is phosphorylated by Cdk9/cyclinT1 kinase using the ATP substrate. The Phospho-5TAMRA-cdk7tide peptide substrate is bound to the IMAP Progressive Binding Reagent. The binding of the IMAP Progressive Binding Reagent changes the fluorescence polarization of the 5TAMRA-cdk7tide peptide which is measured at an excitation of 531 nm and FP emission of 595 nm. Assays are carried out in 100 mM Tris, pH=7.2, mM MgCl2, 0.05% NaN3, 0.01% Tween-20, 1 mM dithiothreitol and 2.5% dimethyl sulfoxide. IMAP Progressive Binding Reagent is diluted 1:800 in 100% 1× Solution A from Molecular Devices, cat#R7285.
General protocol is as follows: To 10 ul of cdk9/cyclinT1, 0.5 ul of test compound in dimethyl sulfoxide is added. 5TAMRA-cdk7tide and ATP are mixed. 10 ul of the 5TAMRA-cdk7tide/ATP mix is added to start the reaction. The reaction is allowed to proceed for 4.5 hrs. 60 uL of IMAP Progressive Binding Reagent is added. After >1 hr of incubation, plates are read on the Envision 2101 from Perkin-Elmer. The assay is run in a 384-well format using black Corning plates, cat#3573.

Sequence of Cdk9/cyclinT1 (P50750 whole entry): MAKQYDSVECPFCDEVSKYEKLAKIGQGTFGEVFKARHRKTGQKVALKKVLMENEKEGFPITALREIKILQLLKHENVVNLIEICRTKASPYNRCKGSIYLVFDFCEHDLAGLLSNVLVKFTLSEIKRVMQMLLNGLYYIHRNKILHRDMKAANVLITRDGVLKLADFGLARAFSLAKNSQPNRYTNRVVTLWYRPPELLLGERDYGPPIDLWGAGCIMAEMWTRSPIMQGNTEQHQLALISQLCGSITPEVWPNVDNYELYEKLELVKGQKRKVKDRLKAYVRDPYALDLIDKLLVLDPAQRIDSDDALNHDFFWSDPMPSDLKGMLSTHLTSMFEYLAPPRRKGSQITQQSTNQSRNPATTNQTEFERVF
Sequence of Cdk9/cyclinT1 (O60563 whole entry partner): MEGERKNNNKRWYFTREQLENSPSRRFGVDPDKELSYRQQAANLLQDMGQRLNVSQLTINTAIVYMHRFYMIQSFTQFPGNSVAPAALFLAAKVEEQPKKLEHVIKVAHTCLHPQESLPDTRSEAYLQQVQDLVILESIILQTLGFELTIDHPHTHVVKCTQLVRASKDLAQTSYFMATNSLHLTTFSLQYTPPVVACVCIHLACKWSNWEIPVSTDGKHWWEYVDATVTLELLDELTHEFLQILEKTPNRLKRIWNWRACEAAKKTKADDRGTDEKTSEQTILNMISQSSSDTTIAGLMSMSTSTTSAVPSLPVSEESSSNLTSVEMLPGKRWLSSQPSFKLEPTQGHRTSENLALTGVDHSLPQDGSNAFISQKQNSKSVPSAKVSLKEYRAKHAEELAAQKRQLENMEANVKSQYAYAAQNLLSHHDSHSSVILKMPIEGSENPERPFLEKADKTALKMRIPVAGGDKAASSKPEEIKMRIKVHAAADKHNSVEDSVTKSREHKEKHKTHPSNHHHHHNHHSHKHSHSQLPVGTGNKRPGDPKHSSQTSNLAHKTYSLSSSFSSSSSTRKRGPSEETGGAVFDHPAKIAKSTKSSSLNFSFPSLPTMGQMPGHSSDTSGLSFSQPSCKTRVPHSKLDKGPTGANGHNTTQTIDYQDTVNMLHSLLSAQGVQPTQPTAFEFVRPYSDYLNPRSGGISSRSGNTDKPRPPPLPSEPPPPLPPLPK

`Fc1cc(F)cc(CNc2cccc(-c3cc(N[C@H]4CC[C@H](N5CCCC5)CC4)ncc3Cl)n2)c1` [Compound 23, 5′-chloro-N6-(3,5-difluorobenzyl)-N2′-(trans-4-(pyrrolidin-1-yl)cyclohexyl)-2,4′-bipyridine-2′,6-diamine] and `N[C@H]1CC[C@H](Nc2cc(-c3cccc(NCc4cc(F)cc(F)c4)n3)c(Cl)cn2)CC1` [Compound 29] are the same in IC50: 7.95 nM for the first, 7.95 nM for the second.

`N[C@H]1CC[C@H](Nc2cc(-c3cccc(NCC4CCCCC4)n3)c(Cl)cn2)CC1` [Compound 24] and `N[C@H]1CC[C@H](Nc2cc(-c3cccc(NCC4CCCCCC4)n3)c(Cl)cn2)CC1` [Compound 75] are within 1.5-fold of each other in IC50: 12.4 nM for the first, 13.5 nM for the second.

Going from `N[C@H]1CC[C@H](Nc2cc(-c3cccc(NCc4ccccc4)n3)c(Cl)cn2)CC1` [Compound 25] to `NC[C@H]1CC[C@H](Nc2cc(-c3cccc(NCc4ccccc4)n3)c(Cl)cn2)CC1` [Compound 57], the IC50 rises from 8.08 nM to 32.6 nM (4-fold). The first is the more potent here.

Compared with `N[C@H]1CC[C@H](Nc2cc(-c3cccc(NCc4cccnc4)n3)c(Cl)cn2)CC1` [Compound 26], `NC[C@H]1CC[C@H](Nc2cc(-c3cccc(NCc4cccnc4)n3)c(Cl)cn2)CC1` [Compound 58] is 1.9-fold higher in IC50: 16.3 nM for the first, 31.2 nM for the second. The first is the more potent here.

Going from `N[C@H]1CC[C@H](Nc2cc(-c3cccc(NCc4ccccc4)n3)ccn2)CC1` [Compound 31] to `N[C@H]1CC[C@H](Nc2cc(-c3cccc(NCc4cccc(F)c4)n3)ccn2)CC1` [Compound 32], the IC50 falls from 44.8 nM to 15 nM (3-fold).

Compared with `N[C@H]1CC[C@H](Nc2cc(-c3cccc(NCc4ccncc4)n3)ccn2)CC1` [Compound 33], `N[C@H]1CC[C@H](Nc2ncc(Cl)c(-c3cccc(NCc4ccncc4)n3)n2)CC1` [Compound 35] is 2.1-fold higher in IC50: 27 nM for the first, 55.8 nM for the second.

First: N[C@H]1CC[C@H](Nc2ncc(Cl)c(-c3cccc(NCc4cccc(F)c4)n3)n2)CC1 [Compound 34]
Second: N[C@H]1CC[C@H](Nc2cc(-c3cccc(NCc4cccc(Cl)c4)n3)c(Cl)cn2)CC1 [Compound 37]
The IC50 of the first is 6.1-fold higher: 48.3 nM for the first, 7.95 nM for the second.

Compared with `N[C@H]1CC[C@H](Nc2cc(-c3cccc(NCc4cccc(OC(F)F)c4)n3)c(Cl)cn2)CC1` [Compound 36], `NC[C@H]1CC[C@H](Nc2cc(-c3cccc(NCc4cccc(OC(F)F)c4)n3)c(Cl)cn2)CC1` [Compound 64] is 6.1-fold higher in IC50: 8.91 nM for the first, 54.6 nM for the second.

`N[C@H]1CC[C@H](Nc2cc(-c3cccc(NCc4cncc(F)c4)n3)c(Cl)cn2)CC1` [Compound 38] and `NC[C@H]1CC[C@H](Nc2cc(-c3cccc(NCc4cncc(F)c4)n3)c(Cl)cn2)CC1` [Compound 59] are within 1.5-fold of each other in IC50: 7.95 nM for the first, 9.13 nM for the second.

First: N[C@H]1CC[C@H](Nc2cc(-c3cccc(NCc4cc(F)ccc4F)n3)c(Cl)cn2)CC1 [Compound 39]
Second: NC[C@H]1CC[C@H](Nc2cc(-c3cccc(NCc4cc(F)ccc4F)n3)c(Cl)cn2)CC1 [Compound 61]
The IC50 of the first is 2-fold lower: 8.9 nM for the first, 18.1 nM for the second.

Going from `N[C@H]1CC[C@H](Nc2cc(-c3cccc(NCc4ccccc4F)n3)c(Cl)cn2)CC1` [Compound 41] to `N[C@H]1CC[C@H](Nc2cc(-c3cccc(NCc4ccccc4Cl)n3)c(Cl)cn2)CC1` [Compound 42], the IC50 rises from 12.9 nM to 48.1 nM (3.7-fold).

`COc1cccc(CNc2cccc(-c3cc(N[C@H]4CC[C@H](N)CC4)ncc3Cl)n2)c1` [Compound 44] and `N[C@H]1CC[C@H](Nc2cc(-c3cccc(NCc4cccc(Br)c4)n3)c(Cl)cn2)CC1` [Compound 48] are within 1.5-fold of each other in IC50: 11.2 nM for the first, 7.94 nM for the second.

Compared with `N[C@H]1CC[C@H](Nc2cc(-c3cccc(NCc4cccc(C(F)(F)F)c4)n3)c(Cl)cn2)CC1` [Compound 47], `N[C@H]1CC[C@H](Nc2cc(-c3cccc(NCc4ccc(C(F)(F)F)cc4)n3)c(Cl)cn2)CC1` [Compound 52] is 2.4-fold higher in IC50: 7.95 nM for the first, 19.2 nM for the second.

`N[C@H]1CC[C@H](Nc2cc(-c3cccc(NCc4cccc(O)c4)n3)c(Cl)cn2)CC1` [Compound 49] and `Cc1ccc(CNc2cccc(-c3cc(N[C@H]4CC[C@H](N)CC4)ncc3Cl)n2)cc1` [Compound 51] are within 1.5-fold of each other in IC50: 14.4 nM for the first, 17.4 nM for the second.

Going from `N[C@H]1CC[C@H](Nc2cc(-c3cccc(NCc4ccc(OC(F)F)cc4)n3)c(Cl)cn2)CC1` [Compound 53] to `N[C@H]1CC[C@H](Nc2cc(-c3cccc(NCc4ccc(OC(F)(F)F)cc4)n3)c(Cl)cn2)CC1` [Compound 54], the IC50 rises from 11.1 nM to 23.2 nM (2.1-fold). The first is the more potent here.

First: N[C@H]1CC[C@H](Nc2cc(-c3cccc(NCc4ccc(Cl)cc4)n3)c(Cl)cn2)CC1 [Compound 55]
Second: NC[C@H]1CC[C@H](Nc2cc(-c3cccc(NCc4ccc(F)cc4)n3)c(Cl)cn2)CC1 [Compound 66]
The IC50 of the first is 2.2-fold lower: 7.95 nM for the first, 17.1 nM for the second. The first is the more potent here.

First: NC[C@H]1CC[C@H](Nc2cc(-c3cccc(NCC4CCCCC4)n3)c(Cl)cn2)CC1 [Compound 56]
Second: Clc1cnc(NC2CCNCC2)cc1-c1cccc(NCC2CCCCC2)n1 [Compound 68]
The IC50 of the first is 7-fold lower: 39.3 nM for the first, 274 nM for the second. The first is the more potent here.

`NC[C@H]1CC[C@H](Nc2cc(-c3cccc(NCc4ccncc4)n3)c(Cl)cn2)CC1` [Compound 60] and `NC[C@H]1CC[C@H](Nc2cc(-c3cccc(NCc4cccc(Cl)c4)n3)c(Cl)cn2)CC1` [Compound 62] are the same in IC50: 7.95 nM for the first, 7.95 nM for the second.

Compared with `CC(C)(C)OC(=O)N1CCC(Nc2cc(-c3cccc(NCc4cccc(F)c4)n3)c(Cl)cn2)CC1` [Compound 67], `CN(C)CC(=O)N1CCC(Nc2cc(-c3cccc(NCc4cccc(F)c4)n3)c(Cl)cn2)CC1` [Compound 85] is 37-fold lower in IC50: 2550 nM for the first, 68.5 nM for the second.

First: Clc1cnc(NC2CCNCC2)cc1-c1cccc(NCc2ccccc2)n1 [Compound 69]
Second: Clc1cccc(CNc2cccc(-c3cc(NC4CCNCC4)ncc3Cl)n2)c1 [Compound 73]
The IC50 of the first is 4.4-fold higher: 154 nM for the first, 35.2 nM for the second.

Going from `Fc1cncc(CNc2cccc(-c3cc(NC4CCNCC4)ncc3Cl)n2)c1` [Compound 70] to `Fc1cc(F)cc(CNc2cccc(-c3cc(NC4CCNCC4)ncc3Cl)n2)c1` [Compound 71], the IC50 falls from 173 nM to 27.4 nM (6.3-fold).

Compared with `Clc1cnc(NC2CCNCC2)cc1-c1cccc(NCc2ccncc2)n1` [Compound 72], `Clc1cnc(N[C@@H]2CCCNC2)cc1-c1cccc(NCc2ccncc2)n1` [Compound 93] is 8.1-fold higher in IC50: 114 nM for the first, 928 nM for the second. The first is the more potent here.

First: Fc1ccc(CNc2cccc(-c3cc(NC4CCNCC4)ncc3Cl)n2)cc1F [Compound 74]
Second: Fc1ccc(CNc2cccc(-c3cc(N[C@@H]4CCCNC4)ncc3Cl)n2)cc1F [Compound 94]
The IC50 of the first is 12-fold lower: 41.6 nM for the first, 507 nM for the second.

`CN(Cc1ccccc1)c1cccc(-c2cc(N[C@H]3CC[C@H](N)CC3)ncc2Cl)n1` [Compound 76] and `CN(Cc1cccc(F)c1)c1cccc(-c2cc(N[C@H]3CC[C@H](N)CC3)ncc2Cl)n1` [Compound 77] are within 1.5-fold of each other in IC50: 11.1 nM for the first, 7.95 nM for the second.

Going from `CCS(=O)(=O)N[C@H]1CC[C@H](Nc2cc(-c3cccc(NCc4cccc(F)c4)n3)c(Cl)cn2)CC1` [Compound 78] to `CCS(=O)(=O)NC[C@H]1CC[C@H](Nc2cc(-c3cccc(NCc4cccc(F)c4)n3)c(Cl)cn2)CC1` [Compound 79], the IC50 falls from 24.2 nM to 7.95 nM (3-fold). The second is the more potent here.

First: CN1CCC[C@H]1C(=O)N[C@H]1CC[C@H](Nc2cc(-c3cccc(NCc4cccc(F)c4)n3)c(Cl)cn2)CC1 [Compound 80]
Second: CN1CCC[C@H]1C(=O)NC[C@H]1CC[C@H](Nc2cc(-c3cccc(NCc4cccc(F)c4)n3)c(Cl)cn2)CC1 [Compound 83]
The IC50 of the first is 2.7-fold higher: 31.7 nM for the first, 11.6 nM for the second.

First: O=C(N[C@H]1CC[C@H](Nc2cc(-c3cccc(NCc4cccc(F)c4)n3)c(Cl)cn2)CC1)c1cccnc1 [Compound 81]
Second: O=C(NC[C@H]1CC[C@H](Nc2cc(-c3cccc(NCc4cccc(F)c4)n3)c(Cl)cn2)CC1)c1cccnc1 [Compound 84]
The IC50 of the first is 3.8-fold higher: 54.2 nM for the first, 14.1 nM for the second. The second is the more potent here.

`CN(C)CC(=O)NC[C@H]1CC[C@H](Nc2cc(-c3cccc(NCc4cccc(F)c4)n3)c(Cl)cn2)CC1` [Compound 82] and `CCN[C@H]1CC[C@H](Nc2cc(-c3cccc(NCc4cccc(F)c4)n3)c(Cl)cn2)CC1` [Compound 88] are within 1.5-fold of each other in IC50: 9.05 nM for the first, 11 nM for the second.

`CN1CCC[C@H]1C(=O)N1CCC(Nc2cc(-c3cccc(NCc4cccc(F)c4)n3)c(Cl)cn2)CC1` [Compound 86] and `O=C(c1cccnc1)N1CCC(Nc2cc(-c3cccc(NCc4cccc(F)c4)n3)c(Cl)cn2)CC1` [Compound 87] are within 1.5-fold of each other in IC50: 81.5 nM for the first, 69 nM for the second.

`Clc1cnc(N[C@@H]2CCCNC2)cc1-c1cccc(NCC2CCCCC2)n1` [Compound 89] and `Clc1cnc(N[C@H]2CCCNC2)cc1-c1cccc(NCC2CCCCC2)n1` [Compound 95] are within 1.5-fold of each other in IC50: 2580 nM for the first, 1950 nM for the second.

Compared with `Clc1cnc(N[C@@H]2CCCNC2)cc1-c1cccc(NCC2CCOCC2)n1` [Compound 90], `Clc1cnc(N[C@H]2CCCNC2)cc1-c1cccc(NCC2CCOCC2)n1` [Compound 96] is 2.3-fold lower in IC50: 2960 nM for the first, 1280 nM for the second.

`Fc1cccc(CNc2cccc(-c3cc(N[C@@H]4CCCNC4)ncc3Cl)n2)c1` [Compound 91] and `Fc1cccc(CNc2cccc(-c3cc(N[C@H]4CCCNC4)ncc3Cl)n2)c1` [Compound 97] are within 1.5-fold of each other in IC50: 336 nM for the first, 339 nM for the second.

`Fc1cc(F)cc(CNc2cccc(-c3cc(N[C@@H]4CCCNC4)ncc3Cl)n2)c1` [Compound 92] and `Fc1cc(F)cc(CNc2cccc(-c3cc(N[C@H]4CCCNC4)ncc3Cl)n2)c1` [Compound 98] are within 1.5-fold of each other in IC50: 296 nM for the first, 416 nM for the second.
